Results published in PubChem BioAssay AID2060610 (Molecular Pharmacology Branch, DTP, NCI, 2025).
“And” between values parts separate entries of the source, which are not always exact repeats. Equal values may be shown once.

System: 616215-338-R-J1-PDC complex spheroids, viability % test/control
Experiment: Anticancer human tumor 616215-338-R-J1-PDC patient-derived colon adenocarcinoma cell line growth inhibition [CLK]
Conditions: for viability, T/C: stronger effect = lower value
Procedure, shortened: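 Multi-cell-type spheroids combined patient-derived tumor cells with HUVEC endothelial cells and human mesenchymal stem cells. Paired agents were dosed in half-log steps down from about clinical Cmax, or from 10 microM where Cmax was unknown.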

[1] = curve of first compound, second compound 0.0316 µM
[2] = curve of first compound, second compound 0.1 µM
[3] = curve of first compound, second compound 0.316 µM
[4] = curve of first compound, second compound 1 µM
[5] = curve of first compound, second compound 3.16 µM
[6] = curve of first compound, second compound 10 µM
[7] = second compound 0.0316 µM, first compound 0.0316 µM
[8] = second compound 0.0316 µM, first compound 0.1 µM
[9] = second compound 0.0316 µM, first compound 0.316 µM
[10] = second compound 0.0316 µM, first compound 1 µM
[11] = second compound 0.1 µM, first compound 0.0316 µM
[12] = second compound 0.1 µM, first compound 0.1 µM
[13] = second compound 0.1 µM, first compound 0.316 µM
[14] = second compound 0.1 µM, first compound 1 µM
[15] = second compound 0.316 µM, first compound 0.0316 µM
[16] = second compound 0.316 µM, first compound 0.1 µM
[17] = second compound 0.316 µM, first compound 0.316 µM
[18] = second compound 0.316 µM, first compound 1 µM
[19] = second compound 1 µM, first compound 0.0316 µM
[20] = second compound 1 µM, first compound 0.1 µM
[21] = second compound 1 µM, first compound 0.316 µM
[22] = second compound 1 µM, first compound 1 µM
[23] = second compound 3.16 µM, first compound 0.0316 µM
[24] = second compound 3.16 µM, first compound 0.1 µM
[25] = second compound 3.16 µM, first compound 0.316 µM
[26] = second compound 3.16 µM, first compound 1 µM
[27] = second compound 10 µM, first compound 0.0316 µM
[28] = second compound 10 µM, first compound 0.1 µM
[29] = second compound 10 µM, first compound 0.316 µM
[30] = second compound 10 µM, first compound 1 µM
[31] = second compound 0.0316 µM, first compound 0.00316 µM
[32] = second compound 0.0316 µM, first compound 0.01 µM
[33] = second compound 0.1 µM, first compound 0.00316 µM
[34] = second compound 0.1 µM, first compound 0.01 µM
[35] = second compound 0.316 µM, first compound 0.00316 µM
[36] = second compound 0.316 µM, first compound 0.01 µM
[37] = second compound 1 µM, first compound 0.00316 µM
[38] = second compound 1 µM, first compound 0.01 µM
[39] = second compound 3.16 µM, first compound 0.00316 µM
[40] = second compound 3.16 µM, first compound 0.01 µM
[41] = second compound 10 µM, first compound 0.00316 µM
[42] = second compound 10 µM, first compound 0.01 µM
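Also: spheroids exposed to agents for 7 days.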
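For viability, T/C in this document: 100% = DMSO vehicle wells.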

For C=CC(=O)N1CCN(c2nc(=O)n(-c3c(C)ccnc3C(C)C)c3nc(-c4c(O)cccc4F)c(F)cc23)C(C)C1 (stereo not given) + CN1CCN(c2cc(C(=O)Nc3cc4cc(-c5cnn(C)c5)ccc4cn3)ccn2)CC1, the IC50 [1] was > 10000 nM, the IC50 [2] was > 10000 nM and the IC50 [3] was < 31.6 nM. For the same molecule, the IC50 [4] was < 31.6 nM, the IC50 [5] was < 31.6 nM and the IC50 [6] was < 31.6 nM. It also gave a viability, T/C [7] of 104%, a viability, T/C [8] of 116% and a viability, T/C [9] of 107%. The viability, T/C [10] was 104%, the viability, T/C (second compound 0.0316 µM, first compound 3.16 µM) was 111% and the viability, T/C (second compound 0.0316 µM, first compound 10 µM) was 102%. For the same molecule, the viability, T/C [11] was 116%, the viability, T/C [12] was 113% and the viability, T/C [13] was 107%. It also gave a viability, T/C [14] of 114%, a viability, T/C (second compound 0.1 µM, first compound 3.16 µM) of 115% and a viability, T/C (second compound 0.1 µM, first compound 10 µM) of 110%. The viability, T/C [15] was 34.9%, the viability, T/C [16] was 43% and the viability, T/C [17] was 43.7%. For the same molecule, the viability, T/C [18] was 50.9%, the viability, T/C (second compound 0.316 µM, first compound 3.16 µM) was 49.9% and the viability, T/C (second compound 0.316 µM, first compound 10 µM) was 28.1%. It also gave a viability, T/C [19] of 0.2%, a viability, T/C [20] of 0.5% and a viability, T/C [21] of 0.21%. The viability, T/C [22] was 0.2%, the viability, T/C (second compound 1 µM, first compound 3.16 µM) was 0.15% and the viability, T/C (second compound 1 µM, first compound 10 µM) was 0.24%. The viability, T/C [23] was 0.13%, the viability, T/C [24] was 1.31% and the viability, T/C [25] was 0.14%. It also gave a viability, T/C [26] of 0.14%, a viability, T/C (second compound 3.16 µM, first compound 3.16 µM) of 0.13% and a viability, T/C (second compound 3.16 µM, first compound 10 µM) of 1.21%. It also gave a viability, T/C [27] of 0.17%, a viability, T/C [28] of 0.19% and a viability, T/C [29] of 0.51%. The viability, T/C [30] was 0.2%, the viability, T/C (second compound 10 µM, first compound 3.16 µM) was 0.2% and the viability, T/C (second compound 10 µM, first compound 10 µM) was 0.17%.
CCN1CCN(Cc2ccc(Nc3ncc(F)c(-c4cc(F)c5nc(C)n(C(C)C)c5c4)n3)nc2)CC1 + CNC(=O)c1ccc(Nc2nc(OC3CCCC3)c3c(-c4ccc5nc(C)oc5c4)c[nH]c3n2)c(OC)c1 was tested, and the IC50 [1] was 928 nM, the IC50 [2] was 285 nM and the IC50 [3] was < 3.16 nM. The IC50 [4] was 136 nM, the IC50 [5] was 357 nM and the IC50 [6] was < 3.16 nM. The viability, T/C [31] was 83%, the viability, T/C [32] was 93.2% and the viability, T/C [7] was 95.5%. It also gave a viability, T/C [8] of 137%, a viability, T/C [9] of 130% and a viability, T/C [10] of 46%. It also gave a viability, T/C [33] of 51.6%, a viability, T/C [34] of 55% and a viability, T/C [11] of 56.3%. It also gave a viability, T/C [12] of 58%, a viability, T/C [13] of 48.1% and a viability, T/C [14] of 26.7%. The viability, T/C [35] was 45.5%, the viability, T/C [36] was 49.2% and the viability, T/C [15] was 53.5%. For the same molecule, the viability, T/C [16] was 50.3%, the viability, T/C [17] was 47.9% and the viability, T/C [18] was 28.2%. It also gave a viability, T/C [37] of 51.8%, a viability, T/C [38] of 49.1% and a viability, T/C [19] of 59.6%. The viability, T/C [20] was 55%, the viability, T/C [21] was 39.5% and the viability, T/C [22] was 28.6%. The viability, T/C [39] was 47.4%, the viability, T/C [40] was 50.3% and the viability, T/C [23] was 53%. For the same molecule, the viability, T/C [24] was 54.1%, the viability, T/C [25] was 61.2% and the viability, T/C [26] was 22.7%. It also gave a viability, T/C [41] of 41.6%, a viability, T/C [42] of 46.8% and a viability, T/C [27] of 58.5%. For the same molecule, the viability, T/C [28] was 52.2%, the viability, T/C [29] was 46% and the viability, T/C [30] was 29.2%.
With CCc1c2c(nc3ccc(O)cc13)-c1cc3c(c(=O)n1C2)COC(=O)[C@]3(O)CC + CNC(=O)c1ccc(Nc2nc(OC3CCCC3)c3c(-c4ccc5nc(C)oc5c4)c[nH]c3n2)c(OC)c1 the IC50 [1] was 13.5 nM, the IC50 [2] was 7.31 nM and the IC50 [3] was < 3.16 nM. The IC50 [4] was 3.52 nM, the IC50 [5] was < 3.16 nM and the IC50 [6] was < 3.16 nM. For the same molecule, the viability, T/C [31] was 111%, the viability, T/C [32] was 51.1% and the viability, T/C [7] was 35.8%. The viability, T/C [8] was 25.6%, the viability, T/C [9] was 14.6% and the viability, T/C [10] was 9.31%. For the same molecule, the viability, T/C [33] was 56.9%, the viability, T/C [34] was 51.3% and the viability, T/C [11] was 27.3%. For the same molecule, the viability, T/C [12] was 21.5%, the viability, T/C [13] was 14.6% and the viability, T/C [14] was 5.13%. For the same molecule, the viability, T/C [35] was 37.9%, the viability, T/C [36] was 38.9% and the viability, T/C [15] was 24.8%. It also gave a viability, T/C [16] of 20.2%, a viability, T/C [17] of 14.6% and a viability, T/C [18] of 1.77%. The viability, T/C [37] was 53.5%, the viability, T/C [38] was 28.5% and the viability, T/C [19] was 18.4%. It also gave a viability, T/C [20] of 17.2%, a viability, T/C [21] of 11.8% and a viability, T/C [22] of 1.4%. The viability, T/C [39] was 37%, the viability, T/C [40] was 27.3% and the viability, T/C [23] was 17.1%. It also gave a viability, T/C [24] of 14.9%, a viability, T/C [25] of 11.8% and a viability, T/C [26] of 2.58%. The viability, T/C [41] was 40.6%, the viability, T/C [42] was 25.2% and the viability, T/C [27] was 18.5%. For the same molecule, the viability, T/C [28] was 17.3%, the viability, T/C [29] was 11.6% and the viability, T/C [30] was 1.03%.
O=c1[nH]cc(F)c(=O)[nH]1 was tested, and the viability, T/C (compound 0.0316 µM) was 94% and 97.5%, the viability, T/C (compound 0.1 µM) was 95.6% and 111% and the viability, T/C (compound 0.316 µM) was 65.3% and 61.7%. For the same molecule, the viability, T/C (compound 1 µM) was 44.4% and 46.8%, the viability, T/C (compound 3.16 µM) was 35.2% and 39.2% and the viability, T/C (compound 10 µM) was 39.2% and 43.4%. For the same molecule, the IC50 (curve of compound) was 672 nM and 654 nM.
C#Cc1c(F)ccc2cc(O)cc(-c3ncc4c(N5CC6CCC(C5)N6)nc(OCC56CCCN5CC(F)C6)nc4c3F)c12 (stereo not given) was tested, and the viability, T/C (compound 0.0316 µM) was 95.4% and 102%, the viability, T/C (compound 0.1 µM) was 96.2% and 91.8% and the viability, T/C (compound 0.316 µM) was 100% and 104%. For the same molecule, the viability, T/C (compound 1 µM) was 119% and 114%, the viability, T/C (compound 3.16 µM) was 133% and 98.2% and the viability, T/C (compound 10 µM) was 83.3% and 65.1%. For the same molecule, the IC50 (curve of compound) was > 10000 nM.
